Our source for the Ki values is article PMC4846659, “Estrogen Receptor-Targeted Contrast Agents for Molecular Magnetic Resonance Imaging of Breast Cancer Hormonal Status” (Frontiers in Oncology, 2016).

The assay has as its target ERα (estrogen receptor α) (Homo sapiens, UniProt P03372). Briefly: competitive radioligand binding assay with tritiated […]β-estradiol on recombinant hERα. On the set-up: gene ESR1; recombinant hERα.

ERα (estrogen receptor α), sequence (P03372 whole entry): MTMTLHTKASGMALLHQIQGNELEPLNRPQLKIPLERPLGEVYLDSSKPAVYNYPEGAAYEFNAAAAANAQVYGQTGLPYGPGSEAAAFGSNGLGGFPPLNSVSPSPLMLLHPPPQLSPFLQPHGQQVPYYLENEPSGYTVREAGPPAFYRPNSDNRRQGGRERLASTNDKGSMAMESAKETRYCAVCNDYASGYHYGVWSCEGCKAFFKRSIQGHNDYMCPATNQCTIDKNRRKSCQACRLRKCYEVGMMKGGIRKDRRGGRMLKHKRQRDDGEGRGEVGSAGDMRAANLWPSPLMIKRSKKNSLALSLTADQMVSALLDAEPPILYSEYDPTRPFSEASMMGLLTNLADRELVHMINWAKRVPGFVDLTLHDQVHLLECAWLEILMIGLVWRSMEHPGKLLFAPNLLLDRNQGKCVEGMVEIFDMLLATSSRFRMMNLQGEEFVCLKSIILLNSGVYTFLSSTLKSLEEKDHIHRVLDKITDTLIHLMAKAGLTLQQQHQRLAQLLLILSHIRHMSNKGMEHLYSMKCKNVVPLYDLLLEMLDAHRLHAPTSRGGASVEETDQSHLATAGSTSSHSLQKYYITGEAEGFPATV

The term Ki denotes the dissociation constant of the complex between target and ligand, obtained from inhibition or displacement. For the compound `C[C@]12CC[C@@H]3c4ccc(O)cc4CC[C@H]3[C@@H]1CC[C@@]2(O)C#Cc1cc(CN(CC(=O)[O-])CC(=O)[O-])nc(CN(CC(=O)[O-])CC(=O)[O-])c1.[Gd+3].[Na+]` [EPTA-Gd], the Ki worked out at 0.97 ± 0.07 µM. For the compound `CC/C(=C(\c1ccc(C#Cc2cc(CN(CC(=O)[O-])CC(=O)[O-])nc(CN(CC(=O)[O-])CC(=O)[O-])c2)cc1)c1ccc(OCCN(C)C)cc1)c1ccccc1.[Gd+3].[Na+]` [TPTA-Gd], the inhibitory constant (Ki) was determined as 0.13 ± 0.006 µM.
